Results on 3 compounds are retold here after patent publication US8263823B2, “Immunocompetent xenograft model” (Adimmu Institute Inc., priority 2008, dated 2012).

SMILES strings stand for the structures.

One data set has as its system TUBO cells. As to the kind of experiment: TUBO tumor size after aHER2, DOXORUBICIN or their combination. To be noted: DOXORUBICIN alone (5 or 15 mg/kg), intratumoral. Type of data set: in vivo, mouse. The method, then: (§1) Cultured cancer cells were trypsinized, washed with media, and injected s.c. on the back. Tumor size was determined at 3-4 day intervals. Tumor volumes were measured along three orthogonal axes (a, b, and c) and calculated as tumor volume=abc/2.
Combination therapy of aHER2 and a chemotherapeutic could show the same reduction in efficacy due to the immunosuppressive action of the chemotherapeutic. To show this, 1×10^6 TUBO cells were injected into Balb/c mice. After the tumor was well-established, the mice were separated into groups subject to the following groups of treatments: (i) 80 μg mIgG only, (ii) 80 μg aHER2 only, (iii) 5 mg/kg DOXORUBICIN only, (iv) 15 mg/kg DOXORUBICIN only, (v) a combination of 80 μg aHER2 and 5 mg/kg DOXORUBICIN, and (vi) a combination of 80 μg aHER2 and 15 mg/kg DOXORUBICIN. The antibodies and chemotherapeutic were administered intratumorally, the time injections and tumor size measurements were taken at 19 and 26 days after tumor injection.

Data set [1] relates to CD8+ 2C transgenic T-cells. To be noted: chemotherapy (dacarbazine) alone, compared to the control mice.
Method: Lymph node (LN) cells and splenocytes (SP) were isolated from 2C TCR Tg mice. […] Cells were isolated from the inguinal LNs (DLNs), SP, or tumors at the time indicated. CFSE dilution was evaluated as described in Yu, at Id.
In order to identify the effects of the chemotherapy on CD8+ T-cell priming, 5×10^5 B16-SIY melanoma cells were injected s.c. in the B6 mice. On day 17, 2×10^6 CFSE labeled naïve CD8+ 2C transgenic T-cells were adoptively transferred into the B16-SIY tumor bearing mice. The mice were treated locally with 20 Gy of radiation on day 0 following the transfer. 200 mg/kg dacarbazine i.p. was given two days after the adoptive transfer, and DLN and SP were harvested on day 21 to determine the CFSE dilution in the DLN and SP.
Data set [2] deals with 4T1 tumor cells. As to the kind of experiment: 4T1 breast tumor model, primary tumor growth, radiation therapy with or without paclitaxel. Type of data set: in vivo, mouse. To be noted: paclitaxel 20 mg/kg i.p. on days 7 and 14 after radiation therapy (15 Gy x3), Balb/c mice. As for the experimental part:
The mice were irradiated using an x-ray generator (PCM 1000; Pantak) at the doses indicated by each experiment. Each mouse was protected with a lead cover with only tumor exposed, allowing local irradiation. For systemic chemotherapy, tumor-bearing mice were injected i.p. with 20 mg/kg paclitaxel (Ameristat Pharmaceuticals) for 4T1 bearing mice and 200 mg/kg dacarbazine (Bedford Laboratories) for B16 bearing mice.
as §1
A 4T1 breast tumor model was used to show the results of the test on a different type of tumor. 1×10^5 4T1 tumor cells were injected and allowed to establish for 14 days. Balb/c control mice receive the breast cancer cells and no radiation, and other mice receive radiation therapy only, chemotherapy only, or a combination of radiation therapy followed by chemotherapy. The mice receiving radiation received a dose of 15 Gy on each of days 14, 15, and 16. On days 7 and 14 following radiation therapy, the mice receiving a combination of radiation therapy and chemotherapy received 20 mg/kg paclitaxel i.p.

The subject of data set [3] is 4T1 tumor cells. As to the kind of experiment: 4T1 lung metastases colonogenic assay, radiation therapy with or without paclitaxel. Type of data set: in vivo, mouse. An excerpt:
For surgical excision of primary 4T1 and B16-CCR7 tumors, mice were anesthetized, and tumors were resected with sterilized instruments. A colonogenic assay was used to evaluate metastases in 4T1 and B16-CCR7 tumors as described in B. A. Pulaski, S. Ostrand-Rosenberg, Curr Protoc Immunol Chapter 20, Unit 20 2 (May, 2001), incorporated herein by reference in its entirety. Lungs for 4T1 tumor or DLN for B16-CCR7 were collected, chopped and dissociated in DMEM supplemented with 10% FCS containing 1.5 mg/ml collagenase type D (Sigma-Aldrich) for 20 min in 37° C. shaking incubator. Single cell suspensions were plated at various dilutions in media supplemented with 10% FCS and selection drug. 4T1 is resistant to 6-thioguanine ([…]) and B16-CCR7 is resistant to G418 (0.7 mg/ml). Individual colonies representing micrometastases were counted after 5-10 days.
1×10^5 4T1 tumor cells were injected s.c. to the Balb/c mice, and the mice received 15 Gy of radiation on each days 12, 13, and 14.

Turning to `COc1cccc2c1C(=O)c1c(O)c3c(c(O)c1C2=O)C[C@@](O)(C(=O)CO)C[C@@H]3O[C@H]1C[C@H](N)[C@H](O)[C@H](C)O1` [DOXORUBICIN], the tumor burden result in the data set with TUBO cells is “reduces tumor burden”. As for `CN(C)/N=N/c1[nH]cnc1C(N)=O` [dacarbazine], the “proliferation of cytotoxic lymphocytes (CTL)” value in data set [1] is “did not elicit proliferation of cytotoxic lymphocytes (CTL)”. Regarding `CC(=O)O[C@H]1C(=O)[C@@]2(C)[C@H]([C@H](OC(=O)c3ccccc3)[C@]3(O)C[C@H](OC(=O)[C@H](O)[C@@H](NC(=O)c4ccccc4)c4ccccc4)C(C)=C1C3(C)C)[C@]1(OC(C)=O)CO[C@@H]1C[C@@H]2O` [paclitaxel], in the data set with 4T1 tumor cells [2], the tumor regression entry is “significantly hindered melanoma tumor regression and promoted tumor outgrowth”. Moreover, the “degree of metastases in the lungs” value in the data set with 4T1 tumor cells [3] (chemotherapy (paclitaxel) alone, compared to the control mice) is “little effect on the degree of metastases in the lungs”. Also, the “increase in tumor colonies in the lungs” value in the data set with 4T1 tumor cells [3] (paclitaxel 20 mg/kg i.p. on days 7 and 14 after radiation therapy (15 Gy x3), versus radiation therapy alone) worked out at 100 fold.
